The values below come from patent US20080261977A1, “Pyrimidine Derivatives as Cannabinoid Receptor Modulators” (priority 2004, published 2008).

Counter-ions that a name gives are not always drawn.

For test [1], the target named is T1, human cannabinoid CB1 receptor (Homo sapiens, UniProt P21554).
T1 construct: expressed in transfected cells; host or cells: Saccharomyces cerevisiae strain MMY23 (cassette integrated at the ura3 locus; chimeric Gpa1/Gαi3)
Description: Cannabinoid CB1 receptor agonist activity, yeast (Saccharomyces cerevisiae) cells expressing the receptor, FDGlu fluorescence. The format is cell-based. Here is the method: The cannabinoid CB1 receptor agonist activity of the compounds of formula (I) was determined in accordance with the following experimental method.
Yeast (Saccharomyces cerevisiae) cells expressing the human cannabinoid CB1 receptor were generated by integration of an expression cassette into the ura3 chromosomal locus of yeast strain MMY23. This cassette consisted of DNA sequence encoding the human CB1 receptor flanked by the yeast GPD promoter to the 5′ end of CB 1 and a yeast transcriptional terminator sequence to the 3′ end of CB1. MMY23 expresses a yeast/mammalian chimeric G-protein alpha subunit in which the C-terminal 5 amino acids of Gpal are replaced with the C-terminal 5 amino acids of human Gαi3 (as described in Brown et al. (2000), Yeast 16:11-22). Cells were grown at 30° C. in liquid Synthetic Complete (SC) yeast media (Guthrie and Fink (1991), Methods in Enzymology, Vol. 194) lacking uracil, tryptophan, adenine and leucine to late logarithmic phase (approximately 6 OD600/ml).
Agonists were prepared as 10 mM stocks in DMSO. EC50 values (the concentration required to produce 50% maximal response) were estimated using dilutions of between 3- and 5-fold (BiomekFX, Beckman) into DMSO. Agonist solutions in DMSO (1% final assay volume) were transferred into black, clear bottom, microtitre plates from NUNC (96- or 384-well). Cells were suspended at a density of 0.2 OD600/ml in SC media lacking histidine, uracil, tryptophan, adenine and leucine and supplemented with 10 mM 3-aminotriazole, 0.1M sodium phosphate pH 7.0, and 20 μM fluorescein di-β-D-glucopyranoside (FDGlu). This mixture (50 ul per well for 384-well plates, 200 ul per well for 96-well plates) was added to agonist in the assay plates (Multidrop 384, Labsystems). After incubation at 30° C. for 24 hours, fluorescence resulting from degradation of FDGlu to fluorescein due to exoglucanase, an endogenous yeast enzyme produced during agonist-stimulated cell growth, was determined using a Spectrofluor microtitre plate reader (Tecan; excitation wavelength: 485 nm; emission wavelength: 535 nm). Fluorescence was plotted against compound concentration and iteratively curve fitted using a four parameter fit to generate a concentration effect value. Efficacy (Emax) was calculated from the equation […]
where Max[compound X] and Min[compound X] are the fitted maximum and minimum respectively from the concentration effect curve for compound X, and Max[HU210] and Min[HU210] are the fitted maximum and minimum respectively from the concentration effect curve for (6aR,10aR)-3-(1,1′-Dimethylheptyl)-6a,7,10,10a-tetrahydro-1 hydroxy-6,6-dimethyl-6H-dibenzo[b,d]pyran-9-methanol (HU210; available from Tocris). Equieffective molar ratio (EMR) values were calculated from the equation […]

In test [2] the target is T2, human cannabinoid CB2 receptor (Homo sapiens, UniProt P34972).
T2 construct: expressed in transfected cells; host or cells: Saccharomyces cerevisiae strain MMY23 (cassette integrated at the ura3 locus; chimeric Gpa1/Gαi3)
Briefly: Cannabinoid CB2 receptor agonist activity, yeast (Saccharomyces cerevisiae) cells expressing the receptor, FDGlu fluorescence. The format is cell-based. The settings on record: yeast agonist assay. The gist of the method: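 S. cerevisiae MMY23 expressing human CB2 with a Gpa1/Gαi3 chimeric G-protein were incubated 24 h at 30° C with agonist in selective medium containing 3-aminotriazole and FDGlu, pH 7.0. Growth-linked fluorescein fluorescence (485/535 nm) gave EC50 by four-parameter fit; Emax and EMR expressed relative to HU210.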

T2 sequence (P34972 whole entry): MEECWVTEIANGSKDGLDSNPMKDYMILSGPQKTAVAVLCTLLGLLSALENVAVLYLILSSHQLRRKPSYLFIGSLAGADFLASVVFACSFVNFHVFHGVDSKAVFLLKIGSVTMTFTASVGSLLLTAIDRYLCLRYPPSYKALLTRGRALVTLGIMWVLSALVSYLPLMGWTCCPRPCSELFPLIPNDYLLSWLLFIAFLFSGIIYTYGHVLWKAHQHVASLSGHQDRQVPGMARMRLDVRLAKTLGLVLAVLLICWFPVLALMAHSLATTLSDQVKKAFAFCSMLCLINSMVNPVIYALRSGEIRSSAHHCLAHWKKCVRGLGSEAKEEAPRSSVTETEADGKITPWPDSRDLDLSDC
T1 sequence (P21554 whole entry): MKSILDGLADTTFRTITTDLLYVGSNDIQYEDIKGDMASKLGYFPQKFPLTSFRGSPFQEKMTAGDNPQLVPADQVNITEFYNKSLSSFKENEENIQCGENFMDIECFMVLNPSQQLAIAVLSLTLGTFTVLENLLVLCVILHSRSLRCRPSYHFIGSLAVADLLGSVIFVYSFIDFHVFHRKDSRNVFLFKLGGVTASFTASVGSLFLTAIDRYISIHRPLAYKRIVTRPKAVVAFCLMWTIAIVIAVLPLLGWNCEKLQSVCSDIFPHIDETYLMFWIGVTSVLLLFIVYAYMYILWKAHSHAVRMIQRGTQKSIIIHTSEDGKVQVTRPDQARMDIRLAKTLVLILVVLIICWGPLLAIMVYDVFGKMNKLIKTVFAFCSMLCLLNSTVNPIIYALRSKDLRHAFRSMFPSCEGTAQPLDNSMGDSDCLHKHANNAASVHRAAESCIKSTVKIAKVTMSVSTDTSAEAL

In the case of `CC(NCC1CCCCC1)c1cnc(Nc2cccc(Cl)c2)nc1C(F)(F)F` (stereo not shown) [Example 89, (3-Chlorophenyl)-{5-[1-(cyclohexylmethyl-amino)-ethyl]-4-trifluoromethyl-pyrimidin-2-yl}-amine, formate], the Emax was 50 to 100% in test [1] (read-out: efficacy (Emax relative to HU210) at the cloned human CB1 receptor) and over 50% in test [2] (read-out: efficacy (Emax relative to HU210) at the cloned human cannabinoid CB2 receptor). The EC50 is 300 to 1000 nM in test [1] (yeast agonist assay, read-out: EC50 at the cloned human CB1 receptor) and under 300 nM in test [2] (read-out: EC50 at the cloned human cannabinoid CB2 receptor).
